In patent publication US20160340683A1, “NANOCARRIER BASED PLANT TRANSFECTION AND TRANSDUCTION” (HER MAJESTY THE QUEEN IN RIGHT OF CANADA AS REPRESENTED BY …, priority 2007, published 2016):
Entries after “also recorded” stand apart in the source; their conditions may differ. fluorescein = fluorescein label at the N-terminus

Columns and labels:
Triticale microspores = assay: DNA-protein co-delivery in microspores, GUS histochemical assay of embryos; type: cell-based; conditions: 2 months after transfection
Description: Triticale tillers for microspore isolation were kept in the refrigerator (4° C.) for 3 weeks with their bases in distilled water and their heads wrapped in aluminum foil. After 3 weeks±3 days, the mid to late uninucleate microspore stage was verified from a median floret using acetocarmine staining prior to extraction. Isolated microspore was carried in Triticale as published in Eudes and Amundsen (2005) for obtaining purified microspore suspension adjusted to 2.5×10^5 cells per ml of NPB99 medium.
The plasmid (pAct-1 GUS, ˜7.2 kb) was linearized with PstI restriction enzyme and DNA was purified by PCR product purification kit (QIAquick, Qiagen, USA). The GUS DNA was delivered following 7 different treatments (T). […]

[1] = tested on: isolated microspores of Triticale (variety Sunray); assay: CPP delivery of GUS enzyme into isolated microspores, GUS staining; type: cell-based; conditions: GUS enzyme cargo:CPP 1:4, 1 hour at 37° C., three repeats
Description: Triticale line Sunray grown in a growth cabinet with a photoperiod of 19 h day (intensity 300 μE m-2 s-1), and temperature 18-15° C. (day-night) with a relative humidity at about 70% was used as the donor plant material. The plants were fertilized every 2 weeks (20-20-20, 200 ppm) and treated with 2.5 ml I-1 Tilt™ (propiconazole, Syngenta) during the tillering stage and Intercept™ (0.004 g per litre of soil, Imidacloprid, Bayer) once sufficient root development was established. The first 10 tillers from each pot were harvested when the spike was at 3-4 cm, depending on the crop, from emergence from the boot. These tillers (to be used for microspore isolation) were subjected to pre-treatment in a refrigerator (4° C.) for 21 days with their bases in distilled water and their heads wrapped in aluminum foil. After 21±3 days of pre-treatment, the spikes were excised from their tillers and after an evaluation of their general appearance, only the most homogenous spikes were used. After confirming microspores at mid to bi-nucleate stage from a median floret, using acetocarmine staining, the tillers were processed for extraction.
Awns were removed with scissors in a laminar flow hood. Eight-fourteen spikes were used for microspore isolation. They were sterilized with 10% bleach (5.25% sodium hypochlorite) for 3 min followed by rinsing in sterile double distilled water four times of 1 min each with constant agitation. Outer glumes were removed and florets from all the spikes were aseptically dissected and transferred to a sterile and refrigerated 110 ml Warring blender cup (VWR international, #58983-093) containing 50 ml filter sterilized extraction buffer at 4° C. Florets were then blended twice for 7 s at low speed (18000 rpm). The slurry was then poured through a 1 mm sieve followed by pouring through a 100 μm sterile mesh (VWR International, #CA21008-950) into two 50 ml centrifuge tubes (25 ml each). The blender cup was rinsed with 50 ml extraction buffer at 4° C. and poured through the 100 μm mesh and was added to the first aliquot in the 50 ml tubes. The cells were then pelleted by centrifugation (100×g for 5 min at 4° C.) using a swinging bucket rotor. After pouring off the supernatant, the microspore-containing pellets were pooled together in one 50 ml tube and re-suspended in 50 ml cold extraction buffer. The cells were pelleted again with centrifugation (100×g for 5 min at 4° C.), the supernatant poured off and the pellet was transferred to a 15 ml tube. After re-suspending the pellet in CIMC Wash Buffer supplemented with 10 microM SS-31 peptide, it was subjected to wash and centrifugation using the above conditions. The supernatant was removed and the pellet was re-suspended in CIMC Wash buffer and centrifugation was repeated as above. The pellet was then suspended in 7 mL of 20% maltose at 4° C., layered with 1 mL of CIMC wash buffer and was centrifuged at 100 g for 13 min at 4° C. A band of microspores formed at the interface was collected in a new 15 ml tube. The cells were diluted with CIMC wash solution and subsequently collected by centrifugation at 150 g for 5 min. The supernatant was removed and the cells were finally suspended in a total volume of 1.4 ml of appropriate solution. After counting the cells using a haemocytometer, aliquots of 100,000 cells in 200 μl volume were prepared in 2 ml microcentrifuge tubes to be ready for transduction.
Peptide stock solutions were made in water at 1 μg/μl concentration. CPP (Nanocarrier) and GUS enzyme (cargo) were first prepared in separate microcentrifuge tubes. A total of 4 μg of CPP was prepared in sterile water to a final volume of 100 μl. Similarly, 1 μg of GUS enzyme was added to sterile water to a final volume of 100 μl. The contents of the two tubes were mixed together giving a ratio of 1:4 protein cargo:CPP. The complex was incubated for 30 min at room temperature (RT). Chariot (PAP1) protein delivering reagent was used as a positive control in the experiments. […]

[2] = tested on: root tip, leaf tip, leaf base and coleoptile; conditions: 5 μM fluorescently labeled peptide
Description: Triticale seeds were washed with detergent and grown on moist cotton for one week. The root tip, leaf tip, leaf base and coleoptile were excised and incubated with 5 μM of fluorescently labeled pVEC, scrambled pVEC and transportan.

immature embryos [3] = assay: Fluorimetry analysis of relative fluorescence uptake by embryos; type: cell-based, Triticale cv AC Alta; conditions: permeabilized and non-permeabilized embryos
Description: (§1) The embryos were isolated from spikes two weeks post-anthesis (scutellum diameter 1-2 mm). The immature seeds were surface sterilized with 70% ethanol for 30 s followed by treatment with 10% hypochlorite (Chlorex) and a drop of Tween 20, 3 min. Four washings of 1 min each were given with sterile water. The embryos were hand dissected under sterile conditions. Isolated embryos were placed on GEM medium (Eudes et al, 2003) for 24 h in dark at room temperature prior to CPP translocation studies.
Isolated and sterilized embryos (20-25) were imbibed in total volume of 420 μl permeabilization buffer (15 mM sodium chloride, 1.5 mM sodium citrate, pH 7.1) containing cellular permeabilization agent toluene/ethanol (1:4) in 1:20 ratio with permeabilization buffer. To this 2.1 μl of 1 mM fluoresceinated CPP was added to give a final concentration of 5 μM. […] Embryos were washed two times with permeabilization buffer and subjected either for fluorescence microscopy or spectrofluorimetric analysis.
For fluorimetric analysis, the embryos were treated with 500 μl of 1% Triton X-100 (prepared in permeabilization buffer), 30 min, at 4° C. The supernatant was collected in a fresh tube and relative fluorescence uptake by the embryos with different CPPs was estimated by fluorimeter (Biorad, Versafluor, USA Excitation 490/Emission 520).

isolated microspores = assay: Uptake of fluoresceinated Tat by isolated microspores; type: cell-based; conditions: no permeabilization
Description: However, permeabilization is not necessary for all cell types. FIG. 2 illustrates the uptake of fluoresceinated Tat by isolated microspores.
Isolated microspores were prepared as described by Amundsen and Eudes, 2005.

immature embryos [4] = assay: Translocation of fluoresceinated CPPs in zygotic embryos, fluorescence microscopy; type: cell-based, Triticale cv AC Alta
Description: as §1
Isolated and sterilized embryos (20-25) were imbibed in total volume of 420 μl permeabilization buffer (15 mM sodium chloride, 1.5 mM sodium citrate, pH 7.1) containing cellular permeabilization agent toluene/ethanol (1:4) in 1:20 ratio with permeabilization buffer. To this 2.1 μl of 1 mM fluoresceinated CPP was added to give a final concentration of 5 μM. In negative controls, the embryos were treated with FITC-dextran sulphate or M-Tat. The embryos were incubated in the permeabilization mix for 1 h in dark at room temperature, followed by two washings with permeabilization buffer. The embryos were then treated with trypsin:EDTA (0.25% solution, Sigma-Aldrich) in 1:2 ratio with permeabilization buffer for 5 min at room temperature to remove free peptide molecules. Embryos were washed two times with permeabilization buffer and subjected either for fluorescence microscopy or spectrofluorimetric analysis.

With “RKKRRQRRRRKKRRQRRR (TAT2) [18 amino acid dimer of the PTD of HIV Tat, reference compound]” the “Highest numbers of embryos that showed GUS” value (Triticale microspores) was 25.8% and the “Average Transduction Efficiency” value [1] was 17.50%.

For “FI-GWTLNSAGYLLGKINLKALAALAKKIL-amide [Transportan]”, the “Fluorescence in excised seedling tissues” value [2] was “maximum florescence” and the “Translocation by fluorimetric analysis compared with visual observation” value (immature embryos [3]) was “relatively greater translocation”.

In the case of “FI-RKKRRQRRR-amide (fluorescein-RKKRRQRRR-NH2) [TAT-PTD]”, the “Uptake of fluoresceinated peptide by isolated microspores (FIG. 2)” value (isolated microspores) is reported as “can penetrate into cells”, the “Uptake seen by fluorescence microscopy (FIG. 1)” value (immature embryos [4]; in the presence of cellular permeabilizing agent (toluene)) is reported as “most significant uptake; also recorded: distinct layer of accumulation in the scutellum and localized accumulation in the germ area” and the “Uptake seen by fluorescence microscopy (FIG. 1)” value (immature embryos [4]; without cellular permeabilizing agent) is reported as “some fluorescence”.
